A word on the logD: it is lipophilicity at a set pH, counting ionised and neutral species. Lower therefore signals lower lipophilicity.

The structures appear in SMILES notation.

This series can be described thus: method code SF-HPLC, from DOI: 10.1016/s0928-0987(01)00163-4, PMID: 11500258. The conditions noted are these: pH 7.4.
`COc1ccc2cc(C(C)C(=O)OCCOCCOCCOCCO)ccc2c1` (stereo not drawn) showed a logD of 3.5.

In the case of `CC(C(=O)OCCOCCOCCOCCOCCOCCO)c1cccc(C(=O)c2ccccc2)c1` (stereo not drawn), the logD came to 3.5.

With `COc1ccc2cc(C(C)C(=O)OCCOCCOCCOCCOCCO)ccc2c1` (stereo not drawn), the logD stood at 3.2.

Take `O=C(Cc1ccccc1Nc1c(Cl)cccc1Cl)OCCOCCOCCOCCOCCOCCO`: the logD was 2.6.

Turning to `O=C(Cc1ccccc1Nc1c(Cl)cccc1Cl)OCCOCCOCCO`, the logD was determined as 3.9.

As for `CC(C(=O)OCCOCCOCCO)c1cccc(C(=O)c2ccccc2)c1` (stereo not drawn), the logD was 3.4.

As for `COc1ccc2cc(C(C)C(=O)OCCOCCOCCOCCOCCOCCO)ccc2c1` (stereo not drawn), the logD is 2.9.

For `COc1ccc2cc(C(C)C(=O)OCCOCCOCCO)ccc2c1` (stereo not drawn), the logD worked out at 3.7.

Regarding `O=C(Cc1ccccc1Nc1c(Cl)cccc1Cl)OCCOCCOCCOCCO`, the logD was determined as 3.5.

`O=C(Cc1ccccc1Nc1c(Cl)cccc1Cl)OCCOCCO` came in with a logD of 4.1.

`CC(C(=O)OCCOCCO)c1cccc(C(=O)c2ccccc2)c1` (stereo not drawn): the logD came to 3.6.

The molecule `CC(C(=O)OCCOCCOCCOCCOCCO)c1cccc(C(=O)c2ccccc2)c1` (stereo not drawn) showed a logD of 3.9.

`CC(C(=O)OCCOCCOCCOCCO)c1cccc(C(=O)c2ccccc2)c1` (stereo not drawn) came in with a logD of 3.6.

The values above are taken from the SangsterLogP compilation.
